# Data from US10798941B2, “Microbiocidal oxadiazole derivatives” (SYNGENTA PARTICIPATIONS AG, priority 2016, dated 2020).
# Values joined by “and” are separate entries in the source; they are usually repeats but may differ in a detail not shown here. Identical values can stand only once.
# Legend:
# [1] = test system: Puccinia recondita f. Sp. Tritici; test: Puccinia recondita f. sp. tritici / wheat / leaf disc preventative (brown rust); type: in vivo; conditions: foliar, 168 h, 200 ppm in the applied formulation, wheat leaf segments cv. Kanzler, preventative, inoculated 1 day after application, assessed 7 to 9 days after application, vs untreated, read-out: disease control
# How it was run: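 Preventative leaf-segment test: spray application of diluted formulated compound on wheat cv. Kanzler, spore inoculation after 1 day. Percent control relative to untreated segments rated 7 to 9 days post-application, with incubation at 19° C, 75% relative humidity, 12 h photoperiod.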
# Phakopsora pachyrhizi = Phakopsora pachyrhizi / soybean / leaf disc preventative (Asian soybean rust); type: in vivo; conditions: foliar, 288 h, 200 ppm in the applied formulation, soybean leaf disks, inoculated one day after application, assessed 12 to 14 days after application, vs untreated, read-out: disease control
# How it was run: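 Read-out is percent disease control relative to untreated check discs, assessed once untreated discs show adequate disease, 12 to 14 days after application. Compounds, tested at 200 ppm in the applied formulation, are sprayed onto soybean leaf discs one day before inoculation with a spore suspension.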
# [2] = test system: Puccinia recondita f. Sp. Tritici; test: Puccinia recondita f. sp. tritici / wheat / leaf disc curative (brown rust); type: in vivo; conditions: foliar, 144 h, 200 ppm in the applied formulation, wheat leaf segments cv. Kanzler, applied 1 day after inoculation, assessed 6 to 8 days after application, vs untreated, read-out: disease control
# How it was run: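 Compounds, prepared from DMSO solutions of at most 10 mg/ml and diluted just before spraying, are applied curatively to inoculated Kanzler wheat leaf segments. Segments are incubated at 19° C and 75% RH in a climate cabinet; disease control relative to untreated is evaluated 6 to 8 days later.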
# [3] = test system: Glomerella Lagenarium (Colletotrichum Lagenarium); test: Glomerella lagenarium (Colletotrichum lagenarium) liquid culture / cucumber / preventative (anthracnose); type: cell-based; conditions: Colletotrichum orbiculare; 20 ppm in the applied formulation; liquid culture in PDB, 24° C., inhibition of growth measured photometrically 3 to 4 days after application, vs untreated; read-out: disease control
# How it was run: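 Conidia from cryogenic storage were mixed into potato dextrose broth. This was added to compound diluted from DMSO into 0.025% Tween20, tested at 20 ppm. Plates were incubated in the dark at 24 °C and 96% relative humidity, and growth was read photometrically after 2–7 days as % activity versus untreated check.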
SMILES,melting point,pest or weed control at 200 ppm [1] [%],pest or weed control at 200 ppm (Phakopsora pachyrhizi) [%],pest or weed control at 200 ppm [2] [%],inhibition of growth at 20 ppm [3] [%]
"CCOC(=O)c1cnn(Cc2ccc(-c3noc(C(F)(F)F)n3)nc2)c1 [Compound 1.269, ethyl 1-[[6-[5-(trifluoromethyl)-1,2,4-oxadiazol-3-yl]-3-pyridyl]methyl]pyrazole-4-carboxylate]",88 to 90 °C,≥ 80,–,≥ 80,≥ 80
"CS(=O)(=O)c1ncn(Cc2ccc(-c3noc(C(F)(F)F)n3)cc2)n1 [Compound 1.296, 3-[4-[(3-methylsulfonyl-1,2,4-triazol-1-yl)methyl]phenyl]-5-(trifluoromethyl)-1,2,4-oxadiazole]",145.4 to 146.4 °C,≥ 80,–,≥ 80,≥ 80
"CCON=Cc1cnn(Cc2ccc(-c3noc(C(F)(F)F)n3)cc2)c1 [Compound 1.286, N-ethoxy-1-[1-[[4-[5-(trifluoromethyl)-1,2,4-oxadiazol-3-yl]phenyl]methyl]pyrazol-4-yl]methanimine]",80 to 120 °C,≥ 80,≥ 80,–,≥ 80
"CS(=O)(=O)c1ncnn1Cc1ccc(-c2noc(C(F)(F)F)n2)cc1 [Compound 1.294, 3-[4-[(5-methylsulfonyl-1,2,4-triazol-1-yl)methyl]phenyl]-5-(trifluoromethyl)-1,2,4-oxadiazole]",119.2 to 119.8 °C,≥ 80,–,≥ 80,≥ 80
"CCCON=Cc1cnn(Cc2ccc(-c3noc(C(F)(F)F)n3)cc2)c1 [Compound 1.287, N-propoxy-1-[1-[[4-[5-(trifluoromethyl)-1,2,4-oxadiazol-3-yl]phenyl]methyl]pyrazol-4-yl]methanimine]",60 to 95 °C,≥ 80,–,≥ 80,≥ 80
"FC(F)(F)c1nc(-c2ccc(Cn3cc(COc4ccccc4)nn3)cc2)no1 [Compound 1.28, 3-[4-[[4-(phenoxymethyl)triazol-1-yl]methyl]phenyl]-5-(trifluoromethyl)-1,2,4-oxadiazole]",103.2 to 104.9 °C,≥ 80,≥ 80,–,≥ 80
"FC(F)(F)c1nc(-c2ccc(CN3CCSCC3)cc2)no1 [Compound 1.302, 3-[4-(thiomorpholino-methyl)phenyl]-5-(trifluoromethyl)-1,2,4-oxadiazole]",54.5 to 56.6 °C,≥ 80,–,≥ 80,≥ 80
"N#Cc1ncn(Cc2ccc(-c3noc(C(F)(F)F)n3)c(F)c2)n1 [Compound 1.255, 1-[[3-fluoro-4-[5-(trifluoromethyl)-1,2,4-oxadiazol-3-yl]phenyl]methyl]-1,2,4-triazole-3-carbonitrile]",120 to 123 °C,≥ 80,–,≥ 80,≥ 80
"CSc1ncnn1Cc1ccc(-c2noc(C(F)(F)F)n2)cc1 [Compound 1.298, 3-[4-[(5-methylsulfanyl-1,2,4-triazol-1-yl)methyl]phenyl]-5-(trifluoromethyl)-1,2,4-oxadiazole]",72 to 73.2 °C,≥ 80,–,≥ 80,≥ 80
"C[S+]([O-])c1ncn(Cc2ccc(-c3noc(C(F)(F)F)n3)cc2)n1 (stereo not shown) [Compound 1.297, 3-[4-[(3-methylsulfinyl-1,2,4-triazol-1-yl)methyl]phenyl]-5-(trifluoromethyl)-1,2,4-oxadiazole]",114.4 to 115.2 °C,≥ 80,–,≥ 80,≥ 80
"COc1cc(-c2noc(C(F)(F)F)n2)ccc1Cn1cncn1 [Compound 1.97, 3-[3-methoxy-4-(1,2,4-triazol-1-ylmethyl)phenyl]-5-(trifluoromethyl)-1,2,4-oxadiazole]",102 to 106 °C,–,–,≥ 80,≥ 80
"CCOC(=O)c1cnn(CCc2ccc(-c3noc(C(F)(F)F)n3)cc2)c1 [Compound 1.310, ethyl 1-[2-[4-[5-(trifluoromethyl)-1,2,4-oxadiazol-3-yl]phenyl]ethyl]pyrazole-4-carboxylate]",108 to 110 °C,≥ 80,≥ 80,–,–
"C[S+]([O-])c1ncnn1Cc1ccc(-c2noc(C(F)(F)F)n2)cc1 (stereo not shown) [Compound 1.295, 3-[4-[(5-methylsulfinyl-1,2,4-triazol-1-yl)methyl]phenyl]-5-(trifluoromethyl)-1,2,4-oxadiazole]",71.2 to 73.7 °C,≥ 80,–,≥ 80,≥ 80
"FC(F)(F)c1nc(-c2ccc(Cn3cc(C=NOCc4ccccc4)cn3)cc2)no1 [Compound 1.289, N-benzyloxy-1-[1-[[4-[5-(trifluoromethyl)-1,2,4-oxadiazol-3-yl]phenyl]methyl]pyrazol-4-yl]methanimine]",75 to 85 °C,≥ 80,–,–,≥ 80

# Now from value to molecule, other results behind:
melting point,SMILES,pest or weed control at 200 ppm [1] [%],pest or weed control at 200 ppm (Phakopsora pachyrhizi) [%],pest or weed control at 200 ppm [2] [%],inhibition of growth at 20 ppm [3] [%]
90.4 to 92.3 °C,"CC(C)(C)c1cn(Cc2ccc(-c3noc(C(F)(F)F)n3)cc2)nn1 [Compound 1.27, 3-[4-[(4-tert-butyltriazol-1-yl)methyl]phenyl]-5-(trifluoromethyl)-1,2,4-oxadiazole]",≥ 80,≥ 80,≥ 80,≥ 80
154 to 156 °C,"COC(=O)c1cn(Cc2ccc(-c3noc(C(F)(F)F)n3)cc2)nn1 [Compound 1.270, methyl 1-[[4-[5-(trifluoromethyl)-1,2,4-oxadiazol-3-yl]phenyl]methyl]triazole-4-carboxylate]",≥ 80,≥ 80,≥ 80,≥ 80
134 to 136 °C,"CCOC(=O)c1cn(Cc2ccc(-c3noc(C(F)(F)F)n3)cc2)nn1 [Compound 1.276, ethyl 1-[[4-[5-(trifluoromethyl)-1,2,4-oxadiazol-3-yl]phenyl]methyl]triazole-4-carboxylate]",≥ 80,≥ 80,–,≥ 80
146 to 148 °C,"CC(C)OC(=O)c1cn(Cc2ccc(-c3noc(C(F)(F)F)n3)cc2)nn1 [Compound 1.278, isopropyl 1-[[4-[5-(trifluoromethyl)-1,2,4-oxadiazol-3-yl]phenyl]methyl]triazole-4-carboxylate]",≥ 80,≥ 80,–,≥ 80
222 to 224 °C,"CNC(=O)c1cnnn1Cc1ccc(-c2noc(C(F)(F)F)n2)cc1 [Compound 1.291, N-methyl-3-[[4-[5-(trifluoromethyl)-1,2,4-oxadiazol-3-yl]phenyl]methyl]triazole-4-carboxamide]",–,–,≥ 80,–
88 to 90.4 °C,"CSc1ncn(Cc2ccc(-c3noc(C(F)(F)F)n3)cc2)n1 [Compound 1.299, 3-[4-[(3-methylsulfanyl-1,2,4-triazol-1-yl)methyl]phenyl]-5-(trifluoromethyl)-1,2,4-oxadiazole]",≥ 80,–,≥ 80,≥ 80
205 to 207 °C,"COc1ccc(NC(=O)c2cn(Cc3ccc(-c4noc(C(F)(F)F)n4)cc3)nn2)cc1 [Compound 1.281, N-(4-methoxyphenyl)-1-[[4-[5-(trifluoromethyl)-1,2,4-oxadiazol-3-yl]phenyl]methyl]triazole-4-carboxamide]",≥ 80,–,≥ 80,≥ 80
208 to 210 °C,"O=C(O)c1cn(Cc2ccc(-c3noc(C(F)(F)F)n3)cc2)nn1 [Compound 1.271, 1-[[4-[5-(trifluoromethyl)-1,2,4-oxadiazol-3-yl]phenyl]methyl]triazole-4-carboxylic acid]",≥ 80,–,≥ 80,–
117.9 to 118.8 °C and 117 to 119 °C,"FC(F)(F)c1nc(-c2ccc(Cn3cc(C4CCCC4)nn3)cc2)no1 [Compound 1.24, 3-[4-[(4-cyclopentyltriazol-1-yl)methyl]phenyl]-5-(trifluoromethyl)-1,2,4-oxadiazole]",≥ 80,≥ 80,–,≥ 80
